Data on one compound can be found in patent US6808724B2, “Artemisolide compound isolated from the aerial parts of Artemisia sylvatica, isolation method, and use thereof” (Korea Research Institute of Bioscience and Biotechnology, priority 2002, dated 2004).

One series has as its target T1, farnesyl transferase (Rattus norvegicus, UniProt Q02293+Q04631).
T1 construct: 100-150 g of brain was separated from a male rat (Sprague Dowley); from tissue; host or cells: rat (Sprague Dawley) brain
Description: Farnesyl transferase inhibition, scintillation proximity assay with 3H-FPP and biotin-lamin B peptide. Type of series: biochemical. As for the experimental part: 100-150 g of brain was separated from a male rat (Sprague Dowley). It was washed with a physiological salt solution and homogenized. Then, farnesyl transferase enzymogen was separated by centrifuging and partially purifying the homogenate with a Q Sepharose Fast Flow Column. The enzyme activity was determined by scintillation proximity assay (SPA), using the ^3H-farnesyl pyrophosphate (FPP) substrate.
To be specific, the method of Michael S. Brown, etc. (Yuval Reiss, Joseph L. Goldstein, Miguel C. Seabra, Patrick J. Casey and Michael S. Brown, 1990, Inhibition of Purified p21ras Farnesyl Protein Transferase by Cys-AAX Tetrapeptides, 62, 81-88) was modified a little. 10 μl of the sample liquid, 10 μl of analysis buffer solution (50 mM Tris-HCL pH7.5, 25 mM MgCl2, 2 mM KCl, 5 mM DTT, 5 mM Na2HPO4, 0.01% Triton X-100), 20 μl of diluted ^3H-FPP, 20 μl biotin-lamin B peptide and 40 μl of farnesyl transferase were mixed well and rendered to react for 30 min at room temperature. Then, 150 μl of SPA bead/stop reagent solution was added. The farnesylation level of biotin-lamin B peptide was measured by using a scintillation counter in CPM (counts per minute) unit. The farnesyl transferase activity inhibition was calculated via Equation 1. [formula] […]

Series [1] has as its system NIH3T3 (mouse fibroblast). Description: Cell growth inhibition (WST-1), NIH3T3. Format: cell-based. The note with it: 48 hr culture, read-out: GI50, the concentration when the cancer cell growth is inhibited by 50%. Here is the method: (§1) NIH3T3 (mouse fibroblast), K-ras (K-ras gene transformed NIH3T3 cell), H-ras (H-ras gene transformed NIH3T3 cell) and SW620 (human colon cancer cell) solid tumor cell lines were cultured in 10% of bovine serum albumin or RPMI 1640 medium (containing L-glutamine and not containing sodium bicarbonate; Gibco Cat. No 31800-022) under 37° C. and 5% CO2 condition. The subculture was carried out 2 times a week. The cells were separated from the wall using 0.5% of trypsin and 5.3 mM EDTA (ethylenediamine tetra acetic acid) dissolved in phosphate buffer solution (PBS). In each well of 96-well plate (Falcon), 3×10^3-6×10^3 cells were added and cultured at 37° C. in the presence of 5% CO2 of medium for 24 hr. The new compound was dissolved in dimethyl sulfoxide (DMSO) and diluted to the concentration required for the test. The final concentration of DMSO was set to be lower than 0.5%.
(§2) After removing all medium from the 96-well plate, […] of the new compound was added to each well. After 48 hr of culture, WST-1 was added to each well. Then the culture plate was placed for 3 hr at 37° C. in the presence of 5% CO2. When the reaction was completed, light absorption at 450-690 nm was measured by using an ELISA reader to identify the cancer cell growth inhibition effect.

For series [2], the system named is K-ras (K-ras gene transformed NIH3T3 cell). Description: Cell growth inhibition (WST-1), K-ras. Particulars: Mus musculus, 48 hr culture, read-out: GI50, the concentration when the cancer cell growth is inhibited by 50%. Format: cell-based. As for the experimental part:
as §1, §2
Background: Tetrazolium assays rely on reduction of a dye to a coloured formazan, in cell work by metabolically active cells.

In series [3] the test system is H-ras (H-ras gene transformed NIH3T3 cell). Briefly: Cell growth inhibition (WST-1), H-ras. Format: cell-based. The note with it: Mus musculus, 48 hr culture, read-out: GI50, the concentration when the cancer cell growth is inhibited by 50%. As for the experimental part:
as §1, §2

The subject of series [4] is SW620 (human colon cancer cell). Description: Cell growth inhibition (WST-1), SW620. Type of series: cell-based. The note with it: SW-620, 48 hr culture, read-out: GI50, the concentration when the cancer cell growth is inhibited by 50%. As for the experimental part:
as §1, §2

A further series concerns Molt-4 cell. Description: Leukemia cell growth inhibition, Molt-4. The note with it: Homo sapiens, read-out: GI50, the concentration when the cancer cell growth is inhibited by 50%. Format: cell-based. Here is the method: as §2
In a further series the test system is HL-60 cell. Briefly: Leukemia cell growth inhibition, HL-60. Type of series: cell-based. The note with it: Homo sapiens, read-out: GI50, the concentration when the cancer cell growth is inhibited by 50%. As for the experimental part: as §2
The next series concerns mice. Briefly: Toxicity test in mice. Type of series: in vivo. Here is the method: The compound expressed by the formula 1 was dissolved in dimethyl sulfoxide (DMSO). The solution was diluted with water and administered to mice (10 heads per group) by 100 μg/kg.
Series [5] is described as follows: Physical and chemical properties: solubility in solvents. Type of series: physicochemical. Here is the method: The structure of the obtained white powder compound was analyzed by NMR. The compound is expressed by Formula 1 (molecular formula=C25H32O4; molecular weight=396.52).

What is called inhibition is the change of the read-out against control, counted positive when it falls. As for `C=C1C(=O)O[C@@H]2[C@@H]1CC[C@](C)(O)C13C=CC(C)([C@@H]21)[C@]1(C3)C(=O)C[C@@]2(C(C)C)C[C@H]21` (some centres unmarked) [Formula 1, Artemisolide], at farnesyl transferase (at 100 μg/ml), the inhibition at 100 µg/mL was ~50%. For the same compound, the IC50 on farnesyl transferase (read-out: IC50 (concentration for inhibiting activity by 50%) on farnesyl transferase (converted)) was ~252 µM. For the same compound, the GI50 in series [1] is ~5.5 µg/mL; in series [2], ~0.8 µg/mL; in [3] it was 1.2 µg/mL; in [4], 2.5 µg/mL; in the series with Molt-4 cell, 3.2 µM; in the series with HL-60 cell, ~1.5 µM. The “acute toxicity in the animal test” value with mice is “no acute toxicity”. For the same compound, in series [5], the “Insoluble in” value is “Hexane”. Besides, the “Soluble in” value in series [5] is “MeOH; acetone; EtOAc”.
